Assay results taken from paper PMC2954222, “The structure of Haemophilus influenzae prephenate dehydrogenase suggests unique features of bifunctional TyrA enzymes” (Acta Crystallographica Section F: Structural Biology and …, 2010).

Target: T1, HinfPDH (prephenate dehydrogenase component of chorismate mutase/prephenate dehydrogenase TyrA) (Haemophilus influenzae, UniProt P43902)
T1 construct: prephenate dehydrogenase domain, residues 81-377 (Met1-Phe80 excluded); N-terminal His tag removed by TEV, leaving Gly; selenomethionine-labelled; expressed in E. coli; dimer
Assay: X-ray crystal structure, […] A
Format: binding
Details: ligand acquired during expression in E. coli, not added

T1 sequence (P43902 81-377): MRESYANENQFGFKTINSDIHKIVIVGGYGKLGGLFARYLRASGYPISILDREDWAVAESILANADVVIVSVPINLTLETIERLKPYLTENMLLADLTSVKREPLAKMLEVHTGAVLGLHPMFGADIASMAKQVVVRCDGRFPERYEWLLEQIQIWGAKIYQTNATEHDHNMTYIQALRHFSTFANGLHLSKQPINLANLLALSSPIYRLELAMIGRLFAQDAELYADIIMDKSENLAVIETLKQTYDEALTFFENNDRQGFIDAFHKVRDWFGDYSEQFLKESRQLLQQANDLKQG

Row | SMILES | X-ray crystal structure, 2.0 A (ternary complex with tyrosine, cofactor site) | X-ray crystal structure, 2.0 A (ternary complex with NAD+, active site, competitive mode only inferred)
1 | NC(=O)c1ccc[n+]([C@@H]2O[C@H](COP(=O)(O)OP(=O)(O)OC[C@H]3O[C@@H](n4cnc5c(N)ncnc54)[C@H](O)[C@@H]3O)[C@@H](O)[C@H]2O)c1 [NAD^+] | One tyrosine and one NAD^+ are bound in each monomer | 
2 | N[C@@H](Cc1ccc(O)cc1)C(=O)O [tyrosine] |  | could be unambiguously assigned to a tyrosine molecule and an NAD^+ cofactor
